Assay results from BindingDB's records for doi:10.1007/bf00168610 (UniversitÄT Heidelberg, 1991).
“And” between values parts separate entries of the source, which are not always exact repeats. Equal values may be shown once.

Columns and labels:
[1] = target: T1, Adenosine receptor A1 (Bos taurus, UniProt P28190)
T1 sequence (P28190 whole entry): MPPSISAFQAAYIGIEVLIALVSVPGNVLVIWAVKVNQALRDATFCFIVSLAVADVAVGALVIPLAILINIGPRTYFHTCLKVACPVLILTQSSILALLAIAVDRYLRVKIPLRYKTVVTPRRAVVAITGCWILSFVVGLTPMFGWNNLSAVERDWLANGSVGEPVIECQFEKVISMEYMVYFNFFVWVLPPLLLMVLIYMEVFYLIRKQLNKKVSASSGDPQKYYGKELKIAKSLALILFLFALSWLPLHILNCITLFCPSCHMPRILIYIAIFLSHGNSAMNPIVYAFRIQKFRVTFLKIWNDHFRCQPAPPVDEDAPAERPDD

[2] = target: P2Y purinoceptor 2 (Cricetulus griseus, UniProt P58825)
[3] = target: T2, Adenosine receptor A3 (Ovis aries, UniProt P35342)
T2 sequence (P35342 whole entry): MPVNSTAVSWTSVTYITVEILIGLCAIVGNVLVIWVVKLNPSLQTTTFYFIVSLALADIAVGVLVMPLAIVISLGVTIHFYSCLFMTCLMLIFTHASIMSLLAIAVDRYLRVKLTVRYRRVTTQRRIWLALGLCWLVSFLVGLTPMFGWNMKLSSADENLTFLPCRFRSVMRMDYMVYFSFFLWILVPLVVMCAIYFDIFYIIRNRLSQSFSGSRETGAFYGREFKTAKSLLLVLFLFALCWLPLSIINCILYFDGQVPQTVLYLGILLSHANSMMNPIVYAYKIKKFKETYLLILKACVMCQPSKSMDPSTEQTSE

[4] = target: T3, Adenosine receptor A1 (Cavia porcellus, UniProt P47745)
T3 sequence (P47745 whole entry): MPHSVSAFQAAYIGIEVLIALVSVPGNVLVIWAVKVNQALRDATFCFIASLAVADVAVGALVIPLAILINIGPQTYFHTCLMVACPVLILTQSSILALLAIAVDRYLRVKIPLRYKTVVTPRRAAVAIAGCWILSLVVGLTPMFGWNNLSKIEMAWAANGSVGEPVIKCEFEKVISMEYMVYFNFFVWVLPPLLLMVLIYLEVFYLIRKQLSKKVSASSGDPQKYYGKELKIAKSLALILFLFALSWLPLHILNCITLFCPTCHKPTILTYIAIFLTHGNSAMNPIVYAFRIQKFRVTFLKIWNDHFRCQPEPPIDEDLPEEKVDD

[5] = target: T4, Adenosine receptor A1 (Rattus norvegicus, UniProt P25099)
T4 sequence (P25099 whole entry): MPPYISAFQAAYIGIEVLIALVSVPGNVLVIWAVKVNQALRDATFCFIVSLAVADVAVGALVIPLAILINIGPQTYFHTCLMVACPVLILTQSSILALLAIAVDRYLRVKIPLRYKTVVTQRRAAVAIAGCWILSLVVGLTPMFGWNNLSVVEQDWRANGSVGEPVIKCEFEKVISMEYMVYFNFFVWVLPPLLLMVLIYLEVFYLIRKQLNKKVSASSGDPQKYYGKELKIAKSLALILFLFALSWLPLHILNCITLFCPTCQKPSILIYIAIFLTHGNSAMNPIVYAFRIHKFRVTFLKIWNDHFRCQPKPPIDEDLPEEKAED

[6] = target: T5, Adenosine receptor A1 (Oryctolagus cuniculus, UniProt P34970)
T5 sequence (P34970 whole entry): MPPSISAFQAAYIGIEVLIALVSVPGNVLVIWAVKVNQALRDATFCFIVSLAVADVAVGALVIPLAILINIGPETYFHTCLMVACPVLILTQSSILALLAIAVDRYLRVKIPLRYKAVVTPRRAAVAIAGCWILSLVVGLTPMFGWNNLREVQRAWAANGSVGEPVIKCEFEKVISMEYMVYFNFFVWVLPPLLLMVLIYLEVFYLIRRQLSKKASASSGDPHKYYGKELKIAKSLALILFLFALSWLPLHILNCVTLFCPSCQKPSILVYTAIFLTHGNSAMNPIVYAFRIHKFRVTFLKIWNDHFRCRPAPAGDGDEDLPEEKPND

Sequence of P2Y purinoceptor 2 (P58825 whole entry): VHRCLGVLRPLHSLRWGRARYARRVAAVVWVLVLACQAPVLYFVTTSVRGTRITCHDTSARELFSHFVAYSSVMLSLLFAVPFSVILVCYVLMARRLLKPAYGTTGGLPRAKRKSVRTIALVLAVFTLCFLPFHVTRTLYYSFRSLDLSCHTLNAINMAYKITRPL

Compound	Ki [1]	Ki [2]	Ki [3]	Ki [4]	Ki [5]	Ki [6]
CCCn1c(=O)c2[nH]c(C3CCCC3)nc2n(CCC)c1=O [DPCPX]	0.05 nM	0.14 nM	0.1 nM	–	–	–
CCCn1c(=O)c2[nH]c(-c3ccc(OCC(=O)NCCN)cc3)nc2n(CCC)c1=O [N-(2-Amino-ethyl)-2-[4-(2,6-dioxo-1,3-dipropyl-2,3,6,9-tetrahydro-1H-purin-8-yl)-phenoxy]-acetamide]	0.03 nM	0.31 nM	0.09 nM	1.48 nM and 5.49 nM	0.49 nM	0.45 nM
Cn1c(=O)c2[nH]c(C3CCCC3)nc2n(C)c1=O [NSC_1917]	1.4 nM	4.3 nM	2.9 nM	26.1 nM	6.3 nM	6.4 nM
Cn1c(=O)c2[nH]cnc2n(C)c1=O [Theophylline (1,3-dimethylxanthine)]	–	4550 nM	9050 nM	–	–	4710 nM
